Among the test systems are MOLT-4 leukemia; UACC-257 melanoma; 786-0 renal; HOP-62 NSCLC; SK-OV-3 ovarian; NCI-H460 lung; UACC-62 melanoma; COLO 205 colon; MDA-MB-231 breast; NCI-H226 lung.
Assay in all cases: DTP human tumour cell line panel, 48 h

This passage reports TGI and GI50 results from PubChem BioAssay (NCI).

What is called TGI is the concentration at which net growth stops. Broadly, the GI50 is the concentration giving 50% growth inhibition.

Molecules are shown by their SMILES.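 Dose response: 5 concentrations. Exposure: 48 h. Format: 96-well plates. Endpoint: linear interpolation; highest concentration if not reached. GI50 marks 50% less growth. TGI: total growth inhibition.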

`Cc1cc(NCCCCCCNc2cc(C)nc3cc(N(C)C)ccc23)c2ccc(N(C)C)cc2n1`: the TGI was above 100 µM in the assay on MOLT-4 leukemia; above 100 µM in the assay with UACC-257 melanoma; above 100 µM in the assay with 786-0 renal; above 100 µM with HOP-62 NSCLC; 25 µM with SK-OV-3 ovarian; above 100 µM in the assay with NCI-H460 lung. Further, the TGI with UACC-62 melanoma stood at 21.4 µM.

With `COc1cccc2c1ccc1nc3cccc(C(=O)N[C@H](C)CN(C)C)c3nc12`, the GI50 is 0.0454 µM in the assay on MOLT-4 leukemia; 0.16 µM with UACC-257 melanoma; 0.0887 µM in the assay with 786-0 renal; 0.084 µM with HOP-62 NSCLC; 0.144 µM in the assay on SK-OV-3 ovarian; 0.0646 µM in the assay with COLO 205 colon. Moreover, the values for the GI50 in the assay on NCI-H460 lung, in the assay on MDA-MB-231 breast and in the assay with UACC-62 melanoma were 0.0354 µM, 0.178 µM and 0.0447 µM, respectively. The TGI came to 4.85 µM with MOLT-4 leukemia; 0.659 µM with UACC-257 melanoma; 2.44 µM in the assay on 786-0 renal; 0.787 µM in the assay with HOP-62 NSCLC; 1.89 µM in the assay with SK-OV-3 ovarian; 0.282 µM with COLO 205 colon. For the same molecule, the TGI in the assay on NCI-H460 lung came out at 0.221 µM; in the assay on MDA-MB-231 breast, 3.25 µM; with UACC-62 melanoma it was 0.198 µM.

As for `C1COCCN1.C1COCCN1.NC1CCCCC1N.[Cl-].[Pt+2]` (stereo not given), the GI50 in the assay on MOLT-4 leukemia, in the assay on UACC-257 melanoma, in the assay on 786-0 renal, in the assay with HOP-62 NSCLC, in the assay with SK-OV-3 ovarian and in the assay with COLO 205 colon was above 100 µM throughout. Also, the GI50 with NCI-H226 lung, in the assay on NCI-H460 lung and with UACC-62 melanoma was above 100 µM in each case. Further, the TGI in the assay with MOLT-4 leukemia, in the assay with UACC-257 melanoma, in the assay on 786-0 renal, in the assay with HOP-62 NSCLC, in the assay with SK-OV-3 ovarian and in the assay on COLO 205 colon was above 100 µM in each case. Further, the concentration for total growth inhibition (TGI) in the assay with NCI-H226 lung, in the assay with NCI-H460 lung and in the assay on UACC-62 melanoma was above 100 µM each time.

With `CCOC1=C2C(=O)OC(=O)C2C2CCCCC2=C1` (stereo not given), the TGI in the assay with MOLT-4 leukemia, in the assay with UACC-257 melanoma, in the assay on 786-0 renal, in the assay with HOP-62 NSCLC, in the assay with SK-OV-3 ovarian and in the assay with COLO 205 colon was above 100 µM each time. Further, the TGI in the assay with NCI-H460 lung and in the assay on UACC-62 melanoma was above 100 µM in each case.

On to `O=c1c2ccccc2c(=O)n2n1CC=CC2`, for which the TGI in the assay with MOLT-4 leukemia, with UACC-257 melanoma, in the assay on 786-0 renal, with SK-OV-3 ovarian, in the assay with COLO 205 colon and in the assay with NCI-H226 lung was above 100 µM in each case. In addition, the TGI in the assay with UACC-62 melanoma was above 100 µM.

As for `CC(C)CCCC(C)[C@H]1CCC2[C@@H]3CCC4Nc5nocc5C[C@]4(C)C3CC[C@@]21C` (stereo not given in full), the total growth inhibition concentration (TGI) was 46.5 µM in the assay on MOLT-4 leukemia; 39.5 µM in the assay with UACC-257 melanoma; 25.9 µM with 786-0 renal; above 100 µM in the assay with HOP-62 NSCLC; 34.8 µM in the assay with SK-OV-3 ovarian; 20.4 µM in the assay with COLO 205 colon. The TGI was 37.3 µM in the assay with NCI-H226 lung, 47.1 µM with NCI-H460 lung and 40.7 µM in the assay with UACC-62 melanoma.

As for `N.N.N.N.N.[Cl-].[Co+3].c1ccc(-c2nn[n-]n2)cc1`, the GI50 with MOLT-4 leukemia, in the assay with UACC-257 melanoma, with 786-0 renal, in the assay on HOP-62 NSCLC, in the assay on SK-OV-3 ovarian and in the assay on COLO 205 colon was above 100 µM in each case. In addition, the GI50 in the assay with NCI-H226 lung, with NCI-H460 lung and in the assay on UACC-62 melanoma was above 100 µM in each case. Also, the TGI in the assay on MOLT-4 leukemia, in the assay on UACC-257 melanoma, in the assay with 786-0 renal, in the assay on HOP-62 NSCLC, in the assay with SK-OV-3 ovarian and in the assay on COLO 205 colon was above 100 µM in each case. For the same molecule, the TGI with NCI-H226 lung, in the assay on NCI-H460 lung and in the assay with UACC-62 melanoma was above 100 µM each time.

On to `COCC(O)Cn1ccnc1[N+](=O)[O-]` (stereo not given), for which the TGI in the assay with MOLT-4 leukemia, with UACC-257 melanoma, in the assay with 786-0 renal, in the assay with HOP-62 NSCLC, with SK-OV-3 ovarian and in the assay on COLO 205 colon was above 100 µM in each case. The TGI in the assay with NCI-H226 lung and with NCI-H460 lung was above 100 µM throughout.

As for `O=C1Nc2nc3ccccc3n2N=C2CCCC12` (stereo not given), the TGI in the assay on MOLT-4 leukemia, with UACC-257 melanoma, with 786-0 renal, in the assay with HOP-62 NSCLC, in the assay on SK-OV-3 ovarian and in the assay with COLO 205 colon was above 100 µM in each case. Moreover, the TGI with NCI-H460 lung and in the assay with UACC-62 melanoma was above 100 µM each time.

In the case of `O=C1C2C3C=C4c5ccccc5N(c5ccccc5)C4(C2C(=O)N1c1ccc(Cl)cc1)[C@H]1C(=O)N(c2ccc(Cl)cc2)C(=O)[C@@H]31` (stereo not given in full), the TGI in the assay with MOLT-4 leukemia, with UACC-257 melanoma, in the assay on 786-0 renal, with HOP-62 NSCLC, in the assay with SK-OV-3 ovarian and with COLO 205 colon was above 100 µM in each case. Moreover, the TGI in the assay with NCI-H226 lung, in the assay with NCI-H460 lung and in the assay with UACC-62 melanoma was above 100 µM each time.

On to `O=C(O/C(=C(/N=Nc1ccccc1)c1ccccc1)c1ccccc1)c1ccccc1`, for which the TGI in the assay with MOLT-4 leukemia, with UACC-257 melanoma, in the assay on 786-0 renal, in the assay on SK-OV-3 ovarian, in the assay with NCI-H226 lung and with NCI-H460 lung was above 100 µM in each case. In addition, the TGI in the assay with UACC-62 melanoma is above 100 µM.

On to `CCn1cc(C(=O)N/N=C/c2ccccc2)c(=O)c2cc(F)c(N3CCNC(C)C3)c(F)c21` (stereo not given), for which, in the assay with 786-0 renal, the GI50 was 1.68 µM and the TGI worked out at 3.25 µM. In addition, in the assay with SK-OV-3 ovarian, the GI50 was 1.81 µM and the TGI was 3.25 µM.

Regarding `COc1cc([C@@H]2c3cc4c(cc3[C@@H](OC(=O)c3ccc(N)cc3)C3COC(=O)[C@@H]32)OCO4)cc(OC)c1O` (stereo not given in full), the TGI with MOLT-4 leukemia is 67.4 µM; with UACC-257 melanoma, above 95 µM; in the assay with 786-0 renal, 59 µM; in the assay with HOP-62 NSCLC, 26.9 µM; in the assay with SK-OV-3 ovarian, 20.7 µM; in the assay with COLO 205 colon, 18.9 µM. Further, the TGI in the assay with NCI-H226 lung came out at 33.6 µM; in the assay on NCI-H460 lung it was 46.7 µM; in the assay with UACC-62 melanoma, 19.5 µM.
